{
  "source": "paper PMC8058344",
  "about": "“ARIH1 signaling promotes anti-tumor immunity by targeting PD-L1 for proteasomal degradation” (Nature Communications, 2021)",
  "key": {"EGFR": {"target": "EGFR (Homo sapiens, UniProt P00533)", "sequence (P00533 25-1210)": "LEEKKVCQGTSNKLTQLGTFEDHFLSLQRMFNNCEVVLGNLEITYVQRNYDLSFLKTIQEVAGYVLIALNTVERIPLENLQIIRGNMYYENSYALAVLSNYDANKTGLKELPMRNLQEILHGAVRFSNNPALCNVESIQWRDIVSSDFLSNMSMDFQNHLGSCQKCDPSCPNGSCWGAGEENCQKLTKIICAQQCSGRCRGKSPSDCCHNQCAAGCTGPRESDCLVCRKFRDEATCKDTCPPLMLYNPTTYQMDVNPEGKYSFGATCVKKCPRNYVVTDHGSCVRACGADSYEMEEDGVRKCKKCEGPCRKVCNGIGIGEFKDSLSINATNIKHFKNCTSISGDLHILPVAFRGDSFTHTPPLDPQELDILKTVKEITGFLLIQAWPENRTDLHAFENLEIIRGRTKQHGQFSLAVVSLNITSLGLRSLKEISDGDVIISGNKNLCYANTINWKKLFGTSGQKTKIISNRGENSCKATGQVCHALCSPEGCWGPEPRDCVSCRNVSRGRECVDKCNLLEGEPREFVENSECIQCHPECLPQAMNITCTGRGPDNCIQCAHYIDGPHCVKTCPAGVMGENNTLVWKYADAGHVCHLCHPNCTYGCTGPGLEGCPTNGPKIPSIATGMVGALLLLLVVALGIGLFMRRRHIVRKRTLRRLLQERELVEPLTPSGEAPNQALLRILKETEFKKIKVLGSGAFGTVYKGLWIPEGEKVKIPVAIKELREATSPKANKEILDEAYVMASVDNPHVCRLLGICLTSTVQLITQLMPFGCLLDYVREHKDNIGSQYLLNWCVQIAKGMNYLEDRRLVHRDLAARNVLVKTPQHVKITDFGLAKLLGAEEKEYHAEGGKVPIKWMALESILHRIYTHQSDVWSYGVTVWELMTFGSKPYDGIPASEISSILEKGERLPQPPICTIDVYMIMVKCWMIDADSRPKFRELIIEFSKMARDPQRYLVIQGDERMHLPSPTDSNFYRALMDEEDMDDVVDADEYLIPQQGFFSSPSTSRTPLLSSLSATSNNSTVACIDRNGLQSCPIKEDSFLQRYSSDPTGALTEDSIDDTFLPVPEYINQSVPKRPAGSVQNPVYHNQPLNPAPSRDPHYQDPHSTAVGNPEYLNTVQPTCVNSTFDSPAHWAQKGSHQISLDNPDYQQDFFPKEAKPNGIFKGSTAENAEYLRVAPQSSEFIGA", "assay": "In vitro kinase specificity profiling", "assay_type": "biochemical", "details": "EGFR wild-type"}, "PDGFRa": {"target": "PDGFRa (Homo sapiens, UniProt P16234)", "sequence (P16234 24-1089, species assumed)": "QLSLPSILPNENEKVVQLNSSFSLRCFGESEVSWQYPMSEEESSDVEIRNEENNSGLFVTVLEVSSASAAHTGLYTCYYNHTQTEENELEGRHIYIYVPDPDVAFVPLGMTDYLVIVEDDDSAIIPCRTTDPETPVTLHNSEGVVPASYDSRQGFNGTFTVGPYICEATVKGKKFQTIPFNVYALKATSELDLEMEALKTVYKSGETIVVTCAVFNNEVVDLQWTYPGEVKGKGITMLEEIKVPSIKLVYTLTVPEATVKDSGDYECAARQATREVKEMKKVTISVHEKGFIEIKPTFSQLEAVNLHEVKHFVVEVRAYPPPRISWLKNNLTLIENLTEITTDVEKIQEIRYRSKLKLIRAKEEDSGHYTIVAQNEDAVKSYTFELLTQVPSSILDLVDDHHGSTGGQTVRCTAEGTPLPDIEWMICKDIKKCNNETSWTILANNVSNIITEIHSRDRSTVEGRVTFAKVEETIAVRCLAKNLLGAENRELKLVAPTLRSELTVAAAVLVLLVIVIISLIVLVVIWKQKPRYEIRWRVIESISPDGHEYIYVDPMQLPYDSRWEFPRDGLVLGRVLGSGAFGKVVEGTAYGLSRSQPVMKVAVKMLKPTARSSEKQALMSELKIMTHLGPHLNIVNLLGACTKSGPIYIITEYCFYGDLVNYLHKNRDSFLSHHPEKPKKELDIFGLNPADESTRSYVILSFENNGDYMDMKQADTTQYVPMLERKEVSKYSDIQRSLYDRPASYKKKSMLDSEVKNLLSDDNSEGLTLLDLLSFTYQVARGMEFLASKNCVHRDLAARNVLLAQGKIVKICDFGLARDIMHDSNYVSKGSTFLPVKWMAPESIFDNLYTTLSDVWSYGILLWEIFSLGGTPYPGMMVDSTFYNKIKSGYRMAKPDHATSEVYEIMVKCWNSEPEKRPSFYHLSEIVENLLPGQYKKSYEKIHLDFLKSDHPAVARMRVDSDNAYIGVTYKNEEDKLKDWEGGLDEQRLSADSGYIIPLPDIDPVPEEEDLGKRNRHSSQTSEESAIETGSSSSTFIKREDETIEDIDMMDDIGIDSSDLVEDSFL", "assay": "In vitro kinase specificity profiling", "assay_type": "biochemical"}, "4T1 tumor xenograft": {"system": "4T1 tumor xenograft", "assay": "4T1 tumor xenograft model with ES-072 and/or anti-CTLA4", "assay_type": "in vivo, BALB/c mice", "method": "Fig. 6 ARIH1 promotes anti-tumor immunity via PD-L1 degradation. a Immunoblot of PD-L1 and ARIH1 (HA) in H1975 cells transfected with HA-ARIH1 (WT or Y392C); HA-tagged empty vector (HA-EV) was transfected as a negative control. b Co-IP analysis for the interaction of K48-ubiquitin, ARIH1 (HA), and PD-L1 in HEK293T cells transfected with Flag-PD-L1 and HA-ARIH1 (WT or Y392C) in the presence of 10 μM MG132 for 6 h. c 4T1 cells were infected with an empty vector (CTRL) or two different ARIH1-overexpressing lentiviral preparations (OE#1 and OE#2). ARIH1 and PD-L1 levels were determined by immunoblotting. d–f Tumor growth (d, e) of CTRL (n = 10) and ARIH1-OE cells (n = 11) in BALB/c mice and final tumor weights (f). […]\nFor xenograft model with 4T1 cells and combination therapy with ES-072 and anti-CTLA4, 5 × 10^5 4T1 cells suspended in 50 μL PBS and Matrigel (1 : 1 v/v) were injected into the fourth breast fat pad. On days 3 after injection, tumor size was measured and calculated by using the formula 1/2 × length × width^2. […]\nExcised tumors were digested in collagenase/hyaluronidase and DNase at 37 °C for 45 min to make cell suspension with a 45 μm filter (BD Bioscience). […] Data acquisition was performed using flow cytometry (Beckman Coulter Cytoflex) and data were analyzed using CytExpert V2.3 software. […]"}},
  "data": [
    {"smiles": "C=CC(=O)Nc1cccc(Nc2nc(Nc3ccc(N4CCN(C)CC4)nc3OC)ncc2C(F)(F)F)c1", "note": "[ES-072]", "values": [
      {"measurement": "IC50", "setting": "EGFR", "result": 8.9, "unit": "nM"},
      {"measurement": "IC50", "setting": "PDGFRa", "result": 3850, "unit": "nM"},
      {"measurement": "tumor growth", "setting": "4T1 tumor xenograft; 4T1 cells in BALB/c mice, ES-072 60 mg/kg i.g. daily, anti-CTLA4 100 μg i.p. day 7, 10, 13", "result": "significantly decreased"},
      {"measurement": "PD-L1 levels in tumor lysates", "setting": "4T1 tumor xenograft; 4T1 tumors, western blotting", "result": "decreased"}
    ]}
  ]
}
